Source: US11590129B2, “Combination therapy with an antitumor alkaloid” (PHARMA MAR, S.A., priority 2010, dated 2023)

How the values were obtained:
[1] = tested on: A549 human lung carcinoma cell line; assay: MTT cytotoxicity assay in A549 cells: IC50 of single agents and combinations with PM01183; type: cell-based; settings: Homo sapiens; A549, 72 hours drug exposure, MTT; read-out: IC50
Method in brief: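 A549 cells seeded at 5,000 per well, grown 24 h drug-free, then exposed to vehicle or compounds for 72 h, either singly or combined with PM01183. Combination responses plotted against dose ratio relative to an additivity line.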

[2] = tested on: A673 human rhabdomyosarcoma cell line; assay: cells
Method in brief: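 A673 cells seeded at 5,000 per well, grown 24 h drug-free, then exposed to compounds for 72 h. Viability by MTT reduction (8 h, 37 °C), formazan dissolved in DMSO. Results expressed as percentage of control cell growth.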

[3] = tested on: SK-MEL-2 human melanoma cell line; assay: cells
Description: (§1) a. […] Briefly, cells were harvested and seeded in 96 well microtiter plates at a density of 5,000 cells in 150 μL of culture medium and incubated for 24 hours in drug-free medium before treatment with vehicle alone or test compounds for 72 h.
(§2) The cytotoxic effect was measured by the MTT reduction assay, in which 3-(4,5-Dimethylthiazol-2-yl)-2,5-diphenyltetrazolium bromide, a tetrazole, which is reduced to purple formazan in the mitochondria of living cells, was used. MTT (50 μL of 1 mg/mL stock solution) was added to the wells and incubated for 8 hours at 37° C. until formazan crystals were formed. After gently removing the culture medium, DMSO was added to dissolve the insoluble purple formazan product into a colored solution. […] Results were expressed as percentage of control cell growth.
(§3) b. In a second set of assays, A549 human tumor cells were incubated with PM01183 in combination with each of the agents mentioned above.
(§4) As a visual aid, response values were plotted on a scatter plot with dose ratios given on the x-axis and % response values on the y-axis. […] In cases where response values at the two endpoints were approximately equivalent, points lying above or below this predicted line of additivity could be interpreted as representing antagonistic or synergistic drug interaction, respectively.
(§5) Additional serial dilutions were prepared in serum-free culture medium to achieve a final 4× concentration. Aliquots of 50 μL of each diluted compound were added per well.
SK-MEL-2 was the human melanoma cell line selected for this assay.

[4] = tested on: PC-3 human prostate cancer cell line; assay: cells
Method in brief: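 Cells seeded at 5,000/well, grown 24 h drug-free, then exposed to vehicle or test compounds for 72 h. Viability by MTT reduction (8 h, 37 °C), formazan dissolved in DMSO. Values given as percentage of control cell growth.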

[5] = tested on: PANC-1 human pancreatic carcinoma cell line; assay: cells
Description: as §1, §2, §3, §4, §5
PANC-1 was the human pancreatic carcinoma cell line selected for this assay.

[6] = tested on: HGC-27 human gastric carcinoma cell line; assay: cells
[7] = tested on: IGROV-1 human ovarian adenocarcinoma cell line; assay: cells
[8] = tested on: HepG2 human hepatocellular liver carcinoma cell line; assay: MTT cytotoxicity assay in HepG2 cells: IC50 of single agents and combinations with PM01183; type: cell-based; settings: Homo sapiens; HepG2, 72 hours drug exposure, MTT; read-out: IC50
[9] = tested on: MDA-MB-231 human breast adenocarcinoma cell line; assay: cells
[10] = tested on: RXF-393 human kidney carcinoma cell line; assay: cells
[11] = tested on: JURKAT human leukemia cell line; assay: cells
Description: as §5
(§6) JURKAT and MOLT-4 were the human leukemia cell lines selected for this assay, which were obtained from the American Type Culture Collection (ATCC).
(§7) Briefly, cells were seeded in 96 well microtiter plates at a density of 50000 cells per well in 150 μL of culture medium and incubated for 4-6 hours in drug-free medium before treatment with vehicle alone or test compounds for 72 hours.
(§8) After incubation, the cytotoxic effect was evaluated using a MTT reduction assay. 50 μL of MTT solution (1 mg/mL) were added to the wells and incubated for 15-17 hours at 37° C. until formazan crystals were formed. After gently removing the culture medium, DMSO was added to dissolve the insoluble purple formazan product into a colored solution. […] Results were expressed as percentage of control cell growth. The EC50 values (half-maximal effective concentration) used for the combination studies were calculated using Prism v5.02 software (GraphPad). EC50 was expressed as molar concentration and represented the mean of at least three independent assays.
(§9) b. In a second set of experiments, concentration-response curves for the agents tested, both alone and in two-drug combination, were performed, using the same methodology described in the previous paragraph.
(§10) Using these starting concentrations, constant serial dilutions were performed to generate the concentration-response curves for each set of drugs, alone and in combination.
(§11) Based on this equation, the term “combination index” (CI) is used as a quantitative measure of the degree of drug interactions. […] CI values were calculated by solving the equation for different values of fa (i.e., for different degrees of cell groth inhibition).
(§12) Data were analyzed using CalcuSyn software (Biosoft, Cambridge, UK). For statistical analysis and graphs Prism software (GraphPad, San Diego, USA) was used. All the results represent the mean of at least three independent experiments.

[12] = tested on: MOLT-4 human leukemia cell line; assay: cells
Description: as §5, §6, §7, §8, §9, §10, §11, §12

[13] = tested on: RAMOS human lymphoma cell line; assay: cells
Description: as §7, §8, §10, §11, §12, §5
(§13) In the second set of assays, concentration-response curves for the agents tested, both alone and in two-drug combination, were performed.

[14] = tested on: U-937 human lymphoma cell line; assay: cells
Description: as §7, §8, §10, §11, §12, §5, §13

[15] = tested on: HT-29 human colon adenocarcinoma cell line; assay: cells; settings: HT-29, 72 hours drug exposure, MTT
Method in brief: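 HT-29 cells (5,000/well) were attached for 24 h, then exposed to vehicle or compounds for 72 h. Viability was read by MTT reduction, with 8 h MTT at 37° C and formazan dissolved in DMSO. Values are % of control cell growth.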

[16] = tested on: U87-MG human glioblastoma cell line; assay: cells; settings: U87-MG, 72 hours drug exposure, MTT
Description: as §1, §2, §3, §4, §5
U87-MG was the human glioblastoma cell line selected for this assay.

[17] = A673, 72 hours drug exposure, MTT
[18] = HGC-27, 72 hours drug exposure, MTT
[19] = IGROV-1, 72 hours drug exposure, MTT
[20] = RXF-393, 72 hours drug exposure, MTT

Compound COc1c(C)cc2c(c1O)[C@@H]1[C@@H]3Cc4c(OC(C)=O)c(C)c5c(c4[C@H](CNC(=O)/C=C/c4cccc(C(F)(F)F)c4)N3[C@@H](O)[C@H](C2)N1C)OCO5 [PM00104] has an IC50 [1] of 7 nM, an IC50 ([2]; Homo sapiens, A673, 72 h) of 3 nM and an IC50 ([3]; Homo sapiens, SK-MEL-2, 72 h) of 2 nM. The IC50 ([4]; Homo sapiens, PC-3, 72 h) was 7.1 nM, the IC50 ([5]; Homo sapiens, PANC-1, 72 h) was 7.89 nM and the IC50 ([6]; Homo sapiens, HGC-27, 72 h) was 3.2 nM. For the same compound, the IC50 ([7]; Homo sapiens, IGROV-1, 72 h) was 3.3 nM, the IC50 [8] was 3 nM and the IC50 ([9]; Homo sapiens, MDA-MB-231, 72 h) was 1 nM. For the same compound, the IC50 ([10]; Homo sapiens, RXF 393, 72 h) was 5.4 nM, the EC50 ([11]; Homo sapiens, Jurkat, 72 h) was 4.83 nM and the EC50 ([12]; Homo sapiens, MOLT-4, 72 h) was 1.55 nM. It also gave an EC50 ([13]; Homo sapiens, Ramos, 72 h) of 4.35 nM and an EC50 ([14]; Homo sapiens, U-937, 72 h) of 4.5 nM.

In the case of C/C=C1\NC(=O)[C@H](Cc2ccccc2)NC(=O)[C@@H](C(C)C)NC(=O)[C@@H]([C@@H](C)CC)NC(=O)[C@H](NC(=O)[C@H](NC(=O)[C@H](CCCN)NC(=O)[C@H]2CCCN2C(=O)[C@H](NC(=O)[C@@H](NC(=O)[C@@H](NC(=O)[C@H](NC(=O)CC[C@@H](C)CC)C(C)C)[C@@H](C)O)C(C)C)C(C)C)[C@@H](C)CC)[C@@H](C)OC(=O)[C@H](C(C)C)NC1=O [PM02734, (4S)-MeHex-D-Val-L-Thr-L-Val-D-Val-D-Pro-L-Orn-D-allo-Ile-cyclo(D-allo-Thr-D-allo-Ile-D-Val-L-Phe-Z-Dhb-L-Val)], the IC50 [2, 17] is reported as 3600 nM, the IC50 ([3]; SK-MEL-2, 72 hours drug exposure, MTT) is reported as 1760 nM and the IC50 ([4]; 72 h) is reported as 540 nM. It also gave an IC50 ([5]; PANC-1, 72 hours drug exposure, MTT) of 9000 nM, an IC50 [6, 18] of 950 nM and an IC50 [7, 19] of 333 nM. For the same compound, the IC50 ([9]; 72 h) was 2800 nM, the IC50 [10, 20] was 5000 nM and the IC50 [15] was 214 nM. The IC50 [16] was 4080 nM, the EC50 ([11]; JURKAT, 72 hours exposure, MTT) was 5500 nM and the EC50 ([12]; MOLT-4, 72 hours exposure, MTT) was 14400 nM. The EC50 ([13]; RAMOS, 72 hours exposure, MTT) was 13600 nM and the EC50 ([14]; U-937 tumor cell line, single agent) was 6850 nM.

With aplidine the IC50 [2, 17] was 2.16 nM, the IC50 [6, 18] was 9 nM and the IC50 [7, 19] was 1.5 nM. For the same compound, the IC50 [10, 20] was 1.5 nM, the IC50 [15] was 1.76 nM and the IC50 [16] was 3.8 nM. The EC50 ([11]; JURKAT, 72 hours exposure, MTT) was 13.8 nM and the EC50 ([12]; MOLT-4, 72 hours exposure, MTT) was 1.27 nM.
